Reference: US8962596B2 (Array BioPharma Inc., priority 2010, dated 2015)
pIC50: −log10 of the molar value.

What was measured:
Format in all cases: biochemical
Human Tyk2 kinase domain = target: T1, Human Tyk2 kinase domain (Homo sapiens, UniProt P29597); assay: Tyk2 Inhibition Assay (Omnia kinase fluorescence peptide substrate assay); conditions: averaged IC50 ranges; assay of Example A; 10 μM (Km app) or 1 mM ATP, 2 nM Tyk2
T1 construct: comprising amino acids 886 to 1187 with 10 additional histidine residues; 10xHis (histidine tag) (C, cleaved yes); made in house
T1 sequence (P29597 886-1187): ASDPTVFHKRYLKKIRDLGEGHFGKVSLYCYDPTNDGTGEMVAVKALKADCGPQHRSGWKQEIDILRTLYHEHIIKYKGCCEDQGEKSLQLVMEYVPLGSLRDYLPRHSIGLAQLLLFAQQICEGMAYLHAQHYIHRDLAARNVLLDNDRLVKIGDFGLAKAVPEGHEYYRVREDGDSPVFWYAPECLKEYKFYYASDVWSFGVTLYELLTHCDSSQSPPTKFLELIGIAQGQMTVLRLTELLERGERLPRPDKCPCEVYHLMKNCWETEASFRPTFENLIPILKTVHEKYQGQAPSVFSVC
Summary of the method: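 2 nM His-tag-cleaved kinase domain (aa 886–1187) with 8 μM Omnia Y12 peptide, 10 μM (Km app) or 1 mM ATP, pH 7.4 HEPES/10 mM MgCl2, 2% DMSO. Fluorescence (ex 360/em 485 nm) every 50 s for 45 min; IC50 from 4-parameter fit of POC, top dose 10 μM.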

JAK1 = target: T2, JAK1 (Homo sapiens, UniProt P23458); assay: JAK1 Inhibition Assay (Omnia kinase fluorescence peptide substrate assay); conditions: averaged IC50 ranges; assay of Example B; 40 μM (Km app) or 1 mM ATP, 15 nM JAK1
T2 construct: purchased Invitrogen Corporation, Carlsbad, Calif; PV4775
T2 sequence (P23458 whole entry): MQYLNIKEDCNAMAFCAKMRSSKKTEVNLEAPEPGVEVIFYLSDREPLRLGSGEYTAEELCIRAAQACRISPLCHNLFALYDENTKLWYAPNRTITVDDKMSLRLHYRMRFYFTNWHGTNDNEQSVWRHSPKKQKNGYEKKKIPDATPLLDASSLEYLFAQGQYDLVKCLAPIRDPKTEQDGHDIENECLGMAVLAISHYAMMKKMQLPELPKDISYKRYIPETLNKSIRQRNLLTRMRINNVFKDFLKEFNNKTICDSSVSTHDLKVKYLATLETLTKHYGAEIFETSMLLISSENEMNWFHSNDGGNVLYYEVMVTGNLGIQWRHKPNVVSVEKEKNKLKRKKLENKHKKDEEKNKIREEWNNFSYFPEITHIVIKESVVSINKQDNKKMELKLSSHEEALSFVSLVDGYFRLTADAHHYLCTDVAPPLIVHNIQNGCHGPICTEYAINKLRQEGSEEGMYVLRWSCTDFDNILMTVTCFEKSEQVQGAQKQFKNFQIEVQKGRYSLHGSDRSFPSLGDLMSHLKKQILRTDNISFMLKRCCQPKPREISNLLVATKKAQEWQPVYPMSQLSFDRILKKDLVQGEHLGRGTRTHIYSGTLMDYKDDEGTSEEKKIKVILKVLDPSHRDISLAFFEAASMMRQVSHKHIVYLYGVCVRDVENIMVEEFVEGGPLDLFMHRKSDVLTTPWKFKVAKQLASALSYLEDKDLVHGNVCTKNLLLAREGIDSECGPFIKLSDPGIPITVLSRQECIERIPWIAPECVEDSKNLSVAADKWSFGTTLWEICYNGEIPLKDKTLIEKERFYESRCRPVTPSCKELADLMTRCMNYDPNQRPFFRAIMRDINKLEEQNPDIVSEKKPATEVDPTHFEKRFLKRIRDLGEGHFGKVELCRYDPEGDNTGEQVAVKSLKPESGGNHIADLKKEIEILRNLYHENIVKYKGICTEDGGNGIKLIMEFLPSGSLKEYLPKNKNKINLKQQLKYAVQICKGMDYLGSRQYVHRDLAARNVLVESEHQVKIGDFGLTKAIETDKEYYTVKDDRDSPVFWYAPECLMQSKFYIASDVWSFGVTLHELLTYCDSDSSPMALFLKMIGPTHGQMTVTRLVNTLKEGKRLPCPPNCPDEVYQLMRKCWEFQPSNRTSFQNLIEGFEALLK

JAK2 = target: T3, JAK2 (Homo sapiens, UniProt O60674); assay: JAK2 Inhibition Assay (Omnia kinase fluorescence peptide substrate assay); conditions: averaged IC50 ranges; assay of Example C; 25 μM (Km app) or 1 mM ATP, 5 nM JAK2
T3 construct: purchased Invitrogen Corporation, Carlsbad, Calif; PV4288
T3 sequence (O60674 whole entry): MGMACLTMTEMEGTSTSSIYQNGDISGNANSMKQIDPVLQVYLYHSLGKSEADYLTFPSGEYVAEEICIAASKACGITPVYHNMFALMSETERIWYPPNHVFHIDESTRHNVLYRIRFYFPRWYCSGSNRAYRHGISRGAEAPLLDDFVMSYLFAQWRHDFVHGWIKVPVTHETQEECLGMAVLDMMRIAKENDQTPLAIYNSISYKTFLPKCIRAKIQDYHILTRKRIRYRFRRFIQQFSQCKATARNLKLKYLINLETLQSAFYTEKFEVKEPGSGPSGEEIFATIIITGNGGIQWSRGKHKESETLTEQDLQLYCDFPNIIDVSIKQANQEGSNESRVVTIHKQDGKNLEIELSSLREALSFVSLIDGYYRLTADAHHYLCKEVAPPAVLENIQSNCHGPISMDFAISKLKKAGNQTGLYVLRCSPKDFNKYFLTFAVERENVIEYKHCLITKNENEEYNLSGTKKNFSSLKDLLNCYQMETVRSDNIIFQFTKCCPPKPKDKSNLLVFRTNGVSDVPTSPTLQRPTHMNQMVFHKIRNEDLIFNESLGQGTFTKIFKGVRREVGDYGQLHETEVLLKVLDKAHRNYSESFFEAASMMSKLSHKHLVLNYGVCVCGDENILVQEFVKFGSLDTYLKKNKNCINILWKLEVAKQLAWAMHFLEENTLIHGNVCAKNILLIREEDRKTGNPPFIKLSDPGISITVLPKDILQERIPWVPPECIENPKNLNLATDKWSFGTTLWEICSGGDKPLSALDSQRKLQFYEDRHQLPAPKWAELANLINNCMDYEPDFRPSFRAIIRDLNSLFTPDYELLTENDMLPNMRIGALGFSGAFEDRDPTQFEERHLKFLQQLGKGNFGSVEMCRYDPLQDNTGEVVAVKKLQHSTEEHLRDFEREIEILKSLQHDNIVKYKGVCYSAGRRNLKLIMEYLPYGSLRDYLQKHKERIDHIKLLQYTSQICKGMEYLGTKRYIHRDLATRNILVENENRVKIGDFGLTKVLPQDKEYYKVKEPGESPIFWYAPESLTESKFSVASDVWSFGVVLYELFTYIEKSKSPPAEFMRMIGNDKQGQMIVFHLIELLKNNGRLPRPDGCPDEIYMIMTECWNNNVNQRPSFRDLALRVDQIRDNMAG
Summary of the method: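 5 nM JAK2 phosphorylated 10 μM Omnia Y7 peptide with ATP at 25 μM (Km app) or 1 mM, in 25 mM HEPES pH 7.4, 10 mM MgCl2, 0.01% Triton X-100, 1 mM DTT, 2% DMSO. Fluorescence (360/485 nm) was read every 50 s for 45 min. 10-point 3-fold series from 10 μM; POC versus uninhibited and background controls, 4-parameter logistic IC50.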

JAK3 = target: T4, JAK3 (Homo sapiens, UniProt P52333); assay: JAK3 Inhibition Assay (Omnia kinase fluorescence peptide substrate assay); conditions: averaged IC50 ranges; assay of Example D; 10 μM (Km app) or 1 mM ATP, 2.5 nM JAK3
T4 construct: purchased Invitrogen Corporation, Carlsbad, Calif; PV4080
T4 sequence (P52333 1-1124): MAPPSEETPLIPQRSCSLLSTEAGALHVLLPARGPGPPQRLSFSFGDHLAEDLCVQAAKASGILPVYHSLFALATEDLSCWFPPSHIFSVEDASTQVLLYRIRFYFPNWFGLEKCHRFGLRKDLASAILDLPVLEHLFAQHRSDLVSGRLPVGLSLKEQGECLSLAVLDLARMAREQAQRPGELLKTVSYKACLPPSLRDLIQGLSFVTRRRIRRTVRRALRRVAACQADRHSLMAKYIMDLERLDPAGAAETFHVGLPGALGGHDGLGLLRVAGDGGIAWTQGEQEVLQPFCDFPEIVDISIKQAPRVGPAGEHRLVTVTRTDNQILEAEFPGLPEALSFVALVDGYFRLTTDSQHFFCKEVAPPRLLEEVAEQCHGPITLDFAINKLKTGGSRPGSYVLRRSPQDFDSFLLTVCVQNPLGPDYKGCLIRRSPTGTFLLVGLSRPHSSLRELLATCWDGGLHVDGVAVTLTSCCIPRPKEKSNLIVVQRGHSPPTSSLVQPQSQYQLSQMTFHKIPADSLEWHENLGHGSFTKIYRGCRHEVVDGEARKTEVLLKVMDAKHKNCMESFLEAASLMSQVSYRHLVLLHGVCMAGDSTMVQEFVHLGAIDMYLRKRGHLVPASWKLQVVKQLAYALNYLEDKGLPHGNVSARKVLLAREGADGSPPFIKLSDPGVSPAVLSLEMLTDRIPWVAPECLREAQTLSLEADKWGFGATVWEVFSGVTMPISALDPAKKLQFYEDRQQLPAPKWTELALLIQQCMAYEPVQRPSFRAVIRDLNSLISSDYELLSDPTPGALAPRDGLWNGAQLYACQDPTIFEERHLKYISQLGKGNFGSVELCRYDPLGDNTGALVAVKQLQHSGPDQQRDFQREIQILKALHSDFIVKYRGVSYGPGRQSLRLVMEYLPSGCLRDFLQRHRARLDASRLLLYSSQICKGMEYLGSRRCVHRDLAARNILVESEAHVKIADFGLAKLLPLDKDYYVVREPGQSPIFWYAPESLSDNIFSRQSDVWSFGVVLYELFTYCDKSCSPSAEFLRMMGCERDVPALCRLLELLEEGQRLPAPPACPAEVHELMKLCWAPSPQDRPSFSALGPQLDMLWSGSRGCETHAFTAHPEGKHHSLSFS
Summary of the method: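 Kinase at 2.5 nM with 10 µM Omnia Y7 peptide and 10 µM (Km app) or 1 mM ATP in 25 mM HEPES pH 7.4, 10 mM MgCl2, 1 mM DTT, 0.01% Triton X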

Structure (SMILES) | pIC50 (Human Tyk2 kinase domain) | pIC50 (JAK1) | pIC50 (JAK2) | pIC50 (JAK3)
N#CCC1(n2cc(-c3nc(C4CC4)cc4nccn34)cn2)CN(CC(F)(F)F)C1 [Example 149, 2-(3-(4-(7-cyclopropylimidazo[1,2-c]pyrimidin-5-yl)-1H-pyrazol-1-yl)-1-(2,2,2-trifluoroethyl)azetidin-3-yl)acetonitrile] | 6.00 to 7.00 | < 6.00 | < 6.00 | < 6.00
Cn1cc(-c2cc3nccn3c(-c3cnn(C4(CC#N)CCN(C(=O)OC(C)(C)C)CC4)c3)n2)cn1 [Example 21, tert-butyl 4-(cyanomethyl)-4-(4-(7-(1-methyl-1H-pyrazol-4-yl)imidazo[1,2-c]pyrimidin-5-yl)-1H-pyrazol-1-yl)piperidine-1-carboxylate] | 6.00 to 7.00 | < 6.00 | < 6.00 | < 6.00
Cn1cc(-c2cc3nccn3c(-c3ccn(C(CC#N)C4CC4)n3)n2)cn1 (stereo not shown) [Example 132, 3-Cyclopropyl-3-(3-(7-(1-methyl-1H-pyrazol-4-yl)imidazo[1,2-c]pyrimidin-5-yl)-1H-pyrazol-1-yl)propanenitrile] | 7.00 to 8.00 | < 6.00 | 6.00 to 7.00 | 6.00 to 7.00
Cn1cc(-c2cc3nccn3c(-c3cnn(C4(CC#N)COC4)c3)n2)cn1 [Example 24, 2-(3-(4-(7-(1-methyl-1H-pyrazol-4-yl)imidazo[1,2-c]pyrimidin-5-yl)-1H-pyrazol-1-yl)oxetan-3-yl)acetonitrile] | 7.00 to 8.00 | 7.00 to 8.00 | 7.00 to 8.00 | < 6.00
CCCN1CC(CC#N)(n2cc(-c3nc(-c4cnn(C)c4)cc4nccn34)cn2)C1 [Example 81, 2-(3-(4-(7-(1-methyl-1H-pyrazol-4-yl)imidazo[1,2-c]pyrimidin-5-yl)-1H-pyrazol-1-yl)-1-propylazetidin-3-yl)acetonitrile] | 7.00 to 8.00 | 6.00 to 7.00 | 6.00 to 7.00 | < 6.00
CN1CC(CC#N)(n2cc(-c3nc(-c4cnn(C)c4)cc4nccn34)cn2)C1 [Example 83, 2-(1-methyl-3-(4-(7-(1-methyl-1H-pyrazol-4-yl)imidazo[1,2-c]pyrimidin-5-yl)-1H-pyrazol-1-yl)azetidin-3-yl)acetonitrile] | 7.00 to 8.00 | < 6.00 | 6.00 to 7.00 | < 6.00
Cn1cc(-c2cc3nccn3c(-c3ccn(C4(CC#N)CN(CC(F)(F)F)C4)n3)n2)cn1 [Example 131, 2-(3-(3-(7-(1-Methyl-1H-pyrazol-4-yl)imidazo[1,2-c]pyrimidin-5-yl)-1H-pyrazol-1-yl)-1-(2,2,2-trifluoroethyl)azetidin-3-yl)acetonitrile] | 7.00 to 8.00 | < 6.00 | 6.00 to 7.00 | < 6.00
Cn1cc(-c2cc3ncc(Cl)n3c(-c3cnn(C4(CC#N)CN(S(=O)(=O)C(F)(F)F)C4)c3)n2)cn1 [Example 155, 2-(3-(4-(3-chloro-7-(1-methyl-1H-pyrazol-4-yl)imidazo[1,2-c]pyrimidin-5-yl)-1H-pyrazol-1-yl)-1-((trifluoromethyl)sulfonyl)azetidin-3-yl)acetonitrile] | > 8.00 | 7.00 to 8.00 | 7.00 to 8.00 | 6.00 to 7.00
Cn1cc(-c2cc3nccn3c(-c3cnn(C4(CC#N)CCN(CC(F)(F)F)C4)c3)n2)cn1 (stereo not shown) [Example 135, 2-(3-(4-(7-(1-methyl-1H-pyrazol-4-yl)imidazo[1,2-c]pyrimidin-5-yl)-1H-pyrazol-1-yl)-1-(2,2,2-trifluoroethyl)pyrrolidin-3-yl)acetonitrile] | 7.00 to 8.00 | 6.00 to 7.00 | 7.00 to 8.00 | 6.00 to 7.00
CN1CCN(c2ccc(-c3cc4nccn4c(-c4cnn(C5(CC#N)CN(S(=O)(=O)C(F)(F)F)C5)c4)n3)cc2)CC1 [Example 138, 2-(3-(4-(7-(4-(4-methylpiperazin-1-yl)phenyl)imidazo[1,2-c]pyrimidin-5-yl)-1H-pyrazol-1-yl)-1-(trifluoromethylsulfonyl)azetidin-3-yl)acetonitrile] | > 8.00 | 7.00 to 8.00 | 7.00 to 8.00 | 6.00 to 7.00
Cn1cc(-c2cc3nccn3c(-c3cnn(C4(CC#N)CN(C5COC5)C4)c3)n2)cn1 [Example 67, 2-(3-(4-(7-(1-Methyl-1H-pyrazol-4-yl)imidazo[1,2-c]pyrimidin-5-yl)-1H-pyrazol-1-yl)-1-(oxetan-3-yl)azetidin-3-yl)acetonitrile] | 7.00 to 8.00 | < 6.00 | 6.00 to 7.00 | < 6.00

The next lines start with the values.

pIC50 (Human Tyk2 kinase domain) | pIC50 (JAK1) | pIC50 (JAK2) | pIC50 (JAK3) | Structure (SMILES)
> 8.00 | 7.00 to 8.00 | 7.00 to 8.00 | 6.00 to 7.00 | N#CCC(C1CC1)n1cc(-c2nc(-c3ccc4c(c3)CNCC4)cc3nccn23)cn1 (stereo not shown) [Example 54, 3-Cyclopropyl-3-(4-(7-(1,2,3,4-tetrahydroisoquinolin-7-yl)imidazo[1,2-c]pyrimidin-5-yl)-1H-pyrazol-1-yl)propanenitrile]
> 8.00 | 6.00 to 7.00 | 7.00 to 8.00 | < 6.00 | CS(=O)(=O)CCn1cc(-c2cc3nccn3c(-c3ccn(C4(CC#N)CN(CC(F)(F)F)C4)n3)n2)cn1 [Example 143, 2-(3-(3-(7-(1-(2-(methylsulfonyl)ethyl)-1H-pyrazol-4-yl)imidazo[1,2-c]pyrimidin-5-yl)-1H-pyrazol-1-yl)-1-(2,2,2-trifluoroethyl)azetidin-3-yl)acetonitrile]
> 8.00 | 7.00 to 8.00 | 7.00 to 8.00 | 6.00 to 7.00 | N#CCC(C1CC1)n1cc(-c2nc(-c3cnn(CC(F)(F)F)c3)cc3nccn23)cn1 (stereo not shown) [Example 39, 3-cyclopropyl-3-(4-(7-(1-(2,2,2-trifluoroethyl)-1H-pyrazol-4-yl)imidazo[1,2-c]pyrimidin-5-yl)-1H-pyrazol-1-yl)propanenitrile]
> 8.00 | 6.00 to 7.00 | 7.00 to 8.00 | < 6.00 | Cn1cc(-c2cc3nccn3c(-c3cnn(C4(CC#N)CN(CC(F)F)C4)c3)n2)cn1 [Example 69, 2-(1-(2,2-dDifluoroethyl)-3-(4-(7-(1-methyl-1H-pyrazol-4-yl)imidazo[1,2-c]pyrimidin-5-yl)-1H-pyrazol-1-yl)azetidin-3-yl)acetonitrile]
> 8.00 | 7.00 to 8.00 | 7.00 to 8.00 | 6.00 to 7.00 | Cn1cc(-c2ccc(-c3cc4nccn4c(-c4cnn(C(CC#N)C5CC5)c4)n3)cc2)cn1 (stereo not shown) [Example 60, 3-Cyclopropyl-3 (4 (7 (4 (1 methyl-1H-pyrazol-4-yl)phenyl)imidazo[1,2-c]pyrimidin-5-yl)-1H-pyrazol-1-yl)propanenitrile]
